The results in this text go back to ChEMBL document CHEMBL1141393 (J Med Chem, 2007).

Values after ≈ are worked out from the molar mass of the structure shown.

The test system of assay [1] is Plasmodium falciparum. Briefly: Antiplasmodial activity against chloroquine-resistant Plasmodium falciparum K1. It counts as functional, organism-based.
The subject of assay [2] is Plasmodium falciparum. Description: Antiplasmodial activity against chloroquine-sensitive Plasmodium falciparum 3D7. Format: functional, organism-based.
Assay [3] has as its system Plasmodium falciparum. Description: Antiplasmodial activity against chloroquine-sensitive Plasmodium falciparum D10. Format: functional, organism-based.
Assay [4] deals with Plasmodium falciparum. Description: Antiplasmodial activity against chloroquine-resistant Plasmodium falciparum W2. It counts as functional, organism-based.
For the next assay, the system named is Pichia kudriavzevii. Briefly: Antifungal activity against Candida krusei ATCC 6258. Format: functional.
The next assay has as its system Daudi. Description: Cytotoxicity against human Daudi cell line. It counts as cell-based.
Another assay relates to Aspergillus flavus. Briefly: Antifungal activity against Aspergillus flavus ATCC 204304. Format: functional.
For assay [5], the system named is Aspergillus fumigatus. Description: Antifungal activity against Aspergillus fumigatus. It counts as functional.
For another assay, the system named is Cryptococcus neoformans. Briefly: Antifungal activity against Cryptococcus neoformans. Format: functional.
Another assay relates to Candida albicans. Description: Antifungal activity against Candida albicans. It counts as functional.
A further assay has as its system KB. Briefly: Cytotoxicity against human KB cell line. Format: cell-based.
Assay [6] is described as follows: Cytotoxicity against human lymphocytes. Format: cell-based. Particulars: Lymphocyte.
For another assay, the system named is Candida parapsilosis. Briefly: Antifungal activity against Candida parapsilosis ATCC 22019. Particulars: Lodderomyces parapsilosis. Format: functional.
In assay [7] the test system is Aspergillus fumigatus. Briefly: Antifungal activity against itraconazole resistant Aspergillus fumigatus. Format: functional.

What is called IC50 is the concentration that gives 50% inhibition. A lower IC50 goes with inhibition by little substance. A word on the MIC: it is the smallest concentration in the dilution series that meets the test's criterion for growth inhibition.

As for `N#CC(c1ccccc1)(c1ccc(Cl)cc1)c1ccc(CN2CCCC2)cc1` (racemic), the results for the 50% inhibitory concentration (IC50) with Plasmodium falciparum [1] and in the assay with Plasmodium falciparum [2] were 2640 nM and 5070 nM, respectively.

On to `OC(c1ccccc1)(c1ccc(Cl)cc1)c1ccc(CN2CCCC2)cc1` (racemic), for which the IC50 in the assay on Plasmodium falciparum [1] is 2170 nM; in the assay on Plasmodium falciparum [3], 8300 nM; in the assay on Plasmodium falciparum [2], greater than 10000 nM.

Take `Clc1ccc(C(c2ccccc2)(c2ccc(CN3CCCC3)cc2)N2CCCC2)cc1` (racemic): the IC50 was found to be 1990 nM with Plasmodium falciparum [1], 2570 nM with Plasmodium falciparum [4], 4810 nM with Plasmodium falciparum [3] and 940 nM in the assay on Plasmodium falciparum [2].

As for `Clc1ccccc1C(CNCN1CCCC1)n1ccnc1` (racemic), the IC50 was 920 nM in the assay on Plasmodium falciparum [1], 3050 nM in the assay with Plasmodium falciparum [4], 9430 nM with Plasmodium falciparum [3] and 2610 nM in the assay with Plasmodium falciparum [2].

With `Clc1ccc(C(c2ccccc2)(c2ccc(CN3CCCC3)cc2)n2ccnc2)cc1` (racemic), the MIC in the assay on Pichia kudriavzevii is 16 µg/mL (≈ 37.4 µM); in the assay on Aspergillus flavus it was greater than 32 µg/mL; against Aspergillus fumigatus [5], greater than 32 µg/mL; in the assay on Cryptococcus neoformans, greater than 32 µg/mL; against Candida albicans it was 32 µg/mL (≈ 74.8 µM); in the assay on Candida parapsilosis it was 32 µg/mL (≈ 74.8 µM). The IC50 is 58000 nM with Daudi, 70000 nM in the assay on KB and 70000 nM in assay [6].

For the compound `Clc1ccc(C(Cn2ccnc2)(c2ccccc2)c2ccc(CN3CCCC3)cc2)cc1` (racemic), the IC50 in the assay on Plasmodium falciparum [1] worked out at 520 nM; with Plasmodium falciparum [2], 750 nM.

With `Clc1ccccc1C(c1ccc(CN2CCCC2)cc1)n1ccnc1` (racemic), the IC50 in the assay on Plasmodium falciparum [1] came out at 110 nM; with Plasmodium falciparum [4], 1700 nM; with Plasmodium falciparum [3], 2180 nM; in the assay with Plasmodium falciparum [2], 11 nM. Further, the MIC with Pichia kudriavzevii, against Aspergillus flavus, in the assay with Aspergillus fumigatus [5], against Cryptococcus neoformans, against Candida albicans and in the assay on Candida parapsilosis was greater than 32 µg/mL each time.

Regarding `CCN(CC)Cc1ccc(C(c2ccccc2Cl)n2cncn2)cc1` (racemic), the IC50 with Plasmodium falciparum [1] was 790 nM; in the assay on Plasmodium falciparum [4], greater than 10000 nM; in the assay with Plasmodium falciparum [3], greater than 10000 nM; in the assay with Plasmodium falciparum [2], greater than 10000 nM.

Regarding `Clc1ccc(C(c2ccc(CN3CCCC3)cc2)n2ccnc2)cc1` (racemic), the IC50 in the assay with Plasmodium falciparum [1] was determined as 170 nM; with Plasmodium falciparum [4] it was 1130 nM; with Plasmodium falciparum [3], 1660 nM; with Plasmodium falciparum [2], 310 nM. The MIC against Pichia kudriavzevii, in the assay with Aspergillus flavus, with Aspergillus fumigatus [5], in the assay with Cryptococcus neoformans, in the assay on Candida albicans and in the assay on Candida parapsilosis was greater than 32 µg/mL in each case.

As for `COc1ccc(C(c2ccccc2)(c2ccc(CN3CCCC3)cc2)n2ccnc2)cc1` (racemic), the IC50 in the assay on Plasmodium falciparum [1] came out at 5930 nM; in the assay with Plasmodium falciparum [4] it was 1840 nM; with Plasmodium falciparum [3] it was 2040 nM; in the assay on Plasmodium falciparum [2], 8130 nM.

In the case of `Clc1cccc(C(c2ccc(CN3CCCC3)cc2)n2ccnc2)c1` (racemic), the IC50 is 200 nM with Plasmodium falciparum [1], 1030 nM with Plasmodium falciparum [4], 1420 nM in the assay on Plasmodium falciparum [3] and 110 nM in the assay with Plasmodium falciparum [2]. Besides, the MIC in the assay on Pichia kudriavzevii, in the assay on Aspergillus flavus, in the assay on Aspergillus fumigatus [5], in the assay with Cryptococcus neoformans, in the assay with Candida albicans and against Candida parapsilosis was greater than 32 µg/mL each time.

In the case of `CCN(CC)CCCNCC(c1ccccc1Cl)n1ccnc1` (racemic), the IC50 in the assay with Plasmodium falciparum [1] was determined as 3080 nM; with Plasmodium falciparum [4], 4460 nM; in the assay on Plasmodium falciparum [3], 6410 nM; in the assay on Plasmodium falciparum [2] it was 1900 nM.

For `Clc1ccc(C(c2ccccc2)(c2ccc(CN3CCCC3)cc2)n2cncn2)cc1` (racemic), the half-inhibitory concentration (IC50) with Plasmodium falciparum [1] came out at 2150 nM; in the assay on Plasmodium falciparum [4], 3830 nM; in the assay with Plasmodium falciparum [3], 6920 nM; in the assay with Plasmodium falciparum [2], 8910 nM.

`Clc1cccc(C(c2ccccc2)(c2ccc(CN3CCCC3)cc2)n2ccnc2)c1` (racemic): the IC50 with Plasmodium falciparum [1] worked out at 23 nM; with Plasmodium falciparum [4], 100 nM; with Plasmodium falciparum [3] it was 230 nM; in the assay with Plasmodium falciparum [2] it was 47 nM.

As for `Clc1ccccc1C(c1ccccc1)(c1ccccc1)n1ccnc1` [CLOTRIMAZOLE], the MIC with Pichia kudriavzevii is 2 µg/mL (≈ 5.8 µM); against Aspergillus fumigatus [7], 4 µg/mL (≈ 11.6 µM); against Aspergillus flavus, 4 µg/mL (≈ 11.6 µM); in the assay on Aspergillus fumigatus [5] it was 4 µg/mL (≈ 11.6 µM); with Cryptococcus neoformans, 2 µg/mL (≈ 5.8 µM); against Candida albicans, 0.03 µg/mL (≈ 0.087 µM). Further, the MIC against Candida parapsilosis came to 2 µg/mL (≈ 5.8 µM).
